In ChEMBL document CHEMBL3259779, “Discovery of pyrazolopyridones as a novel class of noncovalent DprE1 inhibitor with potent anti-mycobacterial activity” (J Med Chem, 2014) one finds MIC data, which are given here for 12 compounds.

Values after ≈ are worked out from the molar mass of the structure shown.

By MIC is commonly meant the smallest concentration in the dilution series that meets the test's criterion for growth inhibition.

Holding throughout (assay type): functional
In assay [1] the test system is Mycobacterium tuberculosis. As to the kind of experiment: Antimycobacterial activity against ethambutol-resistant Mycobacterium tuberculosis 17003 assessed as growth inhibition after 2 to 3 weeks by turbidometry.
Assay [2] concerns Mycobacterium tuberculosis. As to the kind of experiment: Antimycobacterial activity against ofloxacin-resistant Mycobacterium tuberculosis 12119 assessed as growth inhibition after 2 to 3 weeks by turbidometry.
Assay [3] concerns Mycobacterium tuberculosis. As to the kind of experiment: Antimycobacterial activity against BTZ043-resistant Mycobacterium tuberculosis harboring DprE1 C-S mutant assessed as growth inhibition by resazurin assay. For orientation: Alamar Blue is a resazurin reagent that responds to reducing activity.
In assay [4] the test system is Mycobacterium tuberculosis. As to the kind of experiment: Antimycobacterial activity against BTZ043-resistant Mycobacterium tuberculosis harboring DprE1 C-G mutant assessed as growth inhibition by resazurin assay.
Assay [5] deals with Mycobacterium tuberculosis. As to the kind of experiment: Antimycobacterial activity against Mycobacterium tuberculosis overexpressing DprE1 assessed as growth inhibition by resazurin assay.
For assay [6], the system named is Mycobacterium tuberculosis. As to the kind of experiment: Antimycobacterial activity against 3-cyclopropyl-1-phenyl-5-((3-(trifluoromethyl)benzylamino)-methyl)-1H-pyrazolo[3,4-b]pyridin-6(7H)-one-resistant Mycobacterium tuberculosis clone 8.1 assessed as growth inhibition by resazurin assay. The following applies: clone 8.1, 7 h.
Assay [7] relates to Mycobacterium tuberculosis. As to the kind of experiment: Antimycobacterial activity against 3-cyclopropyl-1-phenyl-5-((3-(trifluoromethyl)benzylamino)-methyl)-1H-pyrazolo[3,4-b]pyridin-6(7H)-one-resistant Mycobacterium tuberculosis clone 8.3 assessed as growth inhibition by resazurin assay. The following applies: clone 8.3, 7 h.
Assay [8] relates to Mycobacterium tuberculosis. As to the kind of experiment: Antimycobacterial activity against rifampin-resistant Mycobacterium tuberculosis 19000 assessed as growth inhibition after 2 to 3 weeks by turbidometry.
Assay [9] concerns Mycobacterium tuberculosis. Kind of assay: Antimycobacterial activity against 3-cyclopropyl-1-phenyl-5-((3-(trifluoromethyl)benzylamino)-methyl)-1H-pyrazolo[3,4-b]pyridin-6(7H)-one-resistant Mycobacterium tuberculosis clone 8.2 assessed as growth inhibition by resazurin assay. Conditions: clone 8.2, 7 h.
Assay [10] concerns Mycobacterium tuberculosis. As to the kind of experiment: Antimycobacterial activity against streptomycin-resistant Mycobacterium tuberculosis 136570 assessed as growth inhibition after 2 to 3 weeks by turbidometry.
In assay [11] the test system is Mycobacterium tuberculosis. As to the kind of experiment: Antimycobacterial activity against isoniazid-resistant Mycobacterium tuberculosis 912253 assessed as growth inhibition after 2 to 3 weeks by turbidometry.

As to `Cc1nn(-c2ccccc2)c2[nH]c(=O)c(CNCc3cccc(C(F)(F)F)c3)cc12`, the MIC in assay [1] is 3.1 µM (≈ 1.28 µg/mL); in [2], 1.6 µM (≈ 0.66 µg/mL); in assay [3] it was 100 µM (≈ 41.2 µg/mL); in [4] it was 0.3 µM (≈ 0.124 µg/mL); in assay [5], 2.5 µM (≈ 1.03 µg/mL); in assay [6], greater than 100 µM. Also, the MIC in assay [7] was 0.2 µM (≈ 0.0825 µg/mL); in assay [8] it was 3.1 µM (≈ 1.28 µg/mL); in assay [9], 100 µM (≈ 41.2 µg/mL); in [10], 3.1 µM (≈ 1.28 µg/mL); in assay [11], 6.2 µM (≈ 2.56 µg/mL).

On to `O=c1[nH]c2c(cc1CNCc1cccc(C(F)(F)F)c1)c(C1CC1)nn2-c1ccccc1`, for which the MIC in [1] is 1.6 µM (≈ 0.702 µg/mL); in [2], 1.6 µM (≈ 0.702 µg/mL); in assay [3], greater than 100 µM; in [4], 50 µM (≈ 21.9 µg/mL); in [5] it was 0.6 µM (≈ 0.263 µg/mL); in assay [6], 50 µM (≈ 21.9 µg/mL). For the same compound, the MIC in assay [7] is 0.2 µM (≈ 0.0877 µg/mL); in assay [8], 1.6 µM (≈ 0.702 µg/mL); in assay [9], 0.1 µM (≈ 0.0438 µg/mL); in [10], 1.6 µM (≈ 0.702 µg/mL); in assay [11] it was 3.1 µM (≈ 1.36 µg/mL).

`O=c1[nH]c2c(cc1CNCc1cccc(C(F)(F)F)n1)c(C1CC1)nn2-c1ccccc1`: the minimum inhibitory concentration (MIC) in [3] is 100 µM (≈ 43.9 µg/mL); in [4], 100 µM (≈ 43.9 µg/mL); in assay [5], 50 µM (≈ 22 µg/mL); in assay [6] it was 1.2 µM (≈ 0.527 µg/mL); in assay [7], 0.2 µM (≈ 0.0879 µg/mL); in [9], greater than 100 µM.

On to `O=c1[nH]c2c(cc1CNCc1cc(C(F)(F)F)ccc1F)c(C1CC1)nn2-c1ccccc1`, for which the minimal inhibitory concentration (MIC) stood at 1.2 µM (≈ 0.548 µg/mL) in assay [3]; 25 µM (≈ 11.4 µg/mL) in assay [4]; 100 µM (≈ 45.6 µg/mL) in [5]; 100 µM (≈ 45.6 µg/mL) in [6]; 0.2 µM (≈ 0.0913 µg/mL) in assay [7]; 0.08 µM (≈ 0.0365 µg/mL) in [9].

Consider `O=c1[nH]c2c(cc1CNCc1cccc(C(F)(F)F)c1F)c(C1CC1)nn2-c1ccccc1`, for which the MIC was greater than 100 µM in [3]; 1.2 µM (≈ 0.548 µg/mL) in [4]; 25 µM (≈ 11.4 µg/mL) in assay [5]; 0.6 µM (≈ 0.274 µg/mL) in assay [6]; 0.2 µM (≈ 0.0913 µg/mL) in assay [7]; 0.04 µM (≈ 0.0183 µg/mL) in assay [9].

With `Cc1ccc(C(F)(F)F)cc1CNCc1cc2c(C3CC3)nn(-c3ccccc3)c2[nH]c1=O`, the MIC is 0.3 µM (≈ 0.136 µg/mL) in assay [3]; greater than 100 µM in assay [4]; 1.2 µM (≈ 0.543 µg/mL) in assay [5]; 0.3 µM (≈ 0.136 µg/mL) in [6]; 0.2 µM (≈ 0.0905 µg/mL) in [7]; greater than 100 µM in assay [9].

Turning to `C[C@H]1COC2(CCN(c3nc(=O)c4cc(C(F)(F)F)cc([N+](=O)[O-])c4s3)CC2)O1` [BTZ-043], the MIC in [3] is 0.3 µM (≈ 0.129 µg/mL); in assay [4], 0.6 µM (≈ 0.259 µg/mL); in assay [5] it was greater than 100 µM; in assay [6], greater than 100 µM; in [7] it was 12.5 µM (≈ 5.39 µg/mL); in assay [9], 100 µM (≈ 43.1 µg/mL).

Turning to `CC[C@@H](CO)NCCN[C@@H](CC)CO` [ETHAMBUTOL], the MIC in assay [1] is greater than 20 µM; in assay [2], 2 µM (≈ 0.409 µg/mL); in assay [8], 2 µM (≈ 0.409 µg/mL); in [10] it was 2 µM (≈ 0.409 µg/mL); in assay [11], 2 µM (≈ 0.409 µg/mL).

On to `NNC(=O)c1ccncc1` [ISONIAZID], for which the MIC in assay [1] came out at 0.2 µM (≈ 0.0274 µg/mL); in assay [2], 0.2 µM (≈ 0.0274 µg/mL); in assay [3] it was 0.1 µM (≈ 0.0137 µg/mL); in assay [4], 0.3 µM (≈ 0.0411 µg/mL); in assay [5], 100 µM (≈ 13.7 µg/mL); in assay [6] it was 100 µM (≈ 13.7 µg/mL). The MIC is 0.2 µM (≈ 0.0274 µg/mL) in assay [7]; 0.2 µM (≈ 0.0274 µg/mL) in assay [8]; greater than 100 µM in assay [9]; 0.2 µM (≈ 0.0274 µg/mL) in assay [10]; greater than 29 µM in [11].

As for `CC1COc2c(N3CCN(C)CC3)c(F)cc3c(=O)c(C(=O)O)cn1c23` (stereo not drawn) [OFLOXACIN], the MIC in assay [1] was 0.7 µM (≈ 0.253 µg/mL); in assay [2], greater than 5 µM; in [8], 0.7 µM (≈ 0.253 µg/mL); in [10] it was 0.7 µM (≈ 0.253 µg/mL); in [11], 0.7 µM (≈ 0.253 µg/mL).

Turning to `CO[C@H]1/C=C/O[C@@]2(C)Oc3c(C)c(O)c4c(O)c(c(/C=N/N5CCN(C)CC5)c(O)c4c3C2=O)NC(=O)/C(C)=C\C=C\[C@H](C)[C@H](O)[C@@H](C)[C@@H](O)[C@@H](C)[C@H](OC(C)=O)[C@@H]1C` [RIFAMPIN], the MIC in assay [1] was 0.02 µM (≈ 0.0165 µg/mL); in assay [2], 0.02 µM (≈ 0.0165 µg/mL); in [8], greater than 5 µM; in [10] it was 0.02 µM (≈ 0.0165 µg/mL); in [11], 0.02 µM (≈ 0.0165 µg/mL).

For `CN[C@@H]1[C@H](O[C@H]2[C@H](O[C@H]3[C@H](O)[C@@H](O)[C@H](N=C(N)N)[C@@H](O)[C@@H]3N=C(N)N)O[C@@H](C)[C@]2(O)C=O)O[C@@H](CO)[C@H](O)[C@H]1O` [STREPTOMYCIN], the MIC in assay [1] was 0.3 µM (≈ 0.174 µg/mL); in assay [2], 0.3 µM (≈ 0.174 µg/mL); in assay [8], 0.3 µM (≈ 0.174 µg/mL); in assay [10], greater than 5 µM; in assay [11], 0.3 µM (≈ 0.174 µg/mL).
